Data: patent US12215140B2, “Method of stabilizing protein contained in specimen and solution for stabilizing protein contained in specimen” (EIKEN KAGAKU KABUSHIKI KAISHA, priority 2018, dated 2025)

System: hemoglobin-haptoglobin complex
Assay: Stability of hemoglobin (as hemoglobin-haptoglobin complex) in samples preserved at 37° C. in preservation solution containing 1 unit/L haptoglobin, Hb measured by latex agglutination method (Examples 1 to 7)
Set-up: species or system human
Settings: for Hb concentration / Recovery ratio with respect to Hb concentration after 0 days: 37° C.
How it was run: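 Latex agglutination (anti-human hemoglobin rabbit polyclonal latex) measured Hb in samples stored at 37 °C up to 21 days; values expressed as % recovery versus day 0. Preservation solution: HEPES 40 mmol/L pH 6.8, BSA 0.1%, NaN3 0.1%, haptoglobin 1 unit/L, phenylboronic acid 0–100 mmol/L, optional sugars; ~300 µg/L Hb, 0.5% feces or none.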

[1] = Feces 1, sugar 50 mmol/L + phenylboronic acid 15 mmol/L, 0 days
[2] = Feces 1, sugar 50 mmol/L + phenylboronic acid 15 mmol/L, 7 days
[3] = Feces 1, sugar 50 mmol/L + phenylboronic acid 15 mmol/L, 14 days
[4] = Feces 1, sugar 50 mmol/L + phenylboronic acid 15 mmol/L, 21 days
[5] = Feces 1, sugar 100 mmol/L + phenylboronic acid 15 mmol/L, 0 days
[6] = Feces 1, sugar 100 mmol/L + phenylboronic acid 15 mmol/L, 7 days
[7] = Feces 1, sugar 100 mmol/L + phenylboronic acid 15 mmol/L, 14 days
[8] = Feces 1, sugar 100 mmol/L + phenylboronic acid 15 mmol/L, 21 days
[9] = Feces 1, sugar 100 mmol/L, no phenylboronic acid, 0 days
[10] = Feces 1, sugar 100 mmol/L, no phenylboronic acid, 7 days
[11] = Feces 1, sugar 100 mmol/L, no phenylboronic acid, 14 days
[12] = Feces 1, sugar 100 mmol/L, no phenylboronic acid, 21 days
[13] = Feces 2, sugar 50 mmol/L + phenylboronic acid 15 mmol/L, 0 days
[14] = Feces 2, sugar 50 mmol/L + phenylboronic acid 15 mmol/L, 7 days
[15] = Feces 2, sugar 50 mmol/L + phenylboronic acid 15 mmol/L, 14 days
[16] = Feces 2, sugar 50 mmol/L + phenylboronic acid 15 mmol/L, 21 days
[17] = Feces 2, sugar 100 mmol/L + phenylboronic acid 15 mmol/L, 0 days
[18] = Feces 2, sugar 100 mmol/L + phenylboronic acid 15 mmol/L, 7 days
[19] = Feces 2, sugar 100 mmol/L + phenylboronic acid 15 mmol/L, 14 days
[20] = Feces 2, sugar 100 mmol/L + phenylboronic acid 15 mmol/L, 21 days
[21] = Feces 2, sugar 100 mmol/L, no phenylboronic acid, 0 days
[22] = Feces 2, sugar 100 mmol/L, no phenylboronic acid, 7 days
[23] = Feces 2, sugar 100 mmol/L, no phenylboronic acid, 14 days
[24] = Feces 2, sugar 100 mmol/L, no phenylboronic acid, 21 days
[25] = Feces 3, sugar 50 mmol/L + phenylboronic acid 15 mmol/L, 0 days
[26] = Feces 3, sugar 50 mmol/L + phenylboronic acid 15 mmol/L, 7 days
[27] = Feces 3, sugar 50 mmol/L + phenylboronic acid 15 mmol/L, 14 days
[28] = Feces 3, sugar 50 mmol/L + phenylboronic acid 15 mmol/L, 21 days
[29] = Feces 3, sugar 100 mmol/L + phenylboronic acid 15 mmol/L, 0 days
[30] = Feces 3, sugar 100 mmol/L + phenylboronic acid 15 mmol/L, 7 days
[31] = Feces 3, sugar 100 mmol/L + phenylboronic acid 15 mmol/L, 14 days
[32] = Feces 3, sugar 100 mmol/L + phenylboronic acid 15 mmol/L, 21 days
[33] = Feces 3, sugar 100 mmol/L, no phenylboronic acid, 0 days
[34] = Feces 3, sugar 100 mmol/L, no phenylboronic acid, 7 days
[35] = Feces 3, sugar 100 mmol/L, no phenylboronic acid, 14 days
[36] = Feces 3, sugar 100 mmol/L, no phenylboronic acid, 21 days
[37] = No feces, sugar 50 mmol/L + phenylboronic acid 15 mmol/L, 0 days
[38] = No feces, sugar 50 mmol/L + phenylboronic acid 15 mmol/L, 7 days
[39] = No feces, sugar 50 mmol/L + phenylboronic acid 15 mmol/L, 14 days
[40] = No feces, sugar 50 mmol/L + phenylboronic acid 15 mmol/L, 21 days
[41] = No feces, sugar 100 mmol/L + phenylboronic acid 15 mmol/L, 0 days
[42] = No feces, sugar 100 mmol/L + phenylboronic acid 15 mmol/L, 7 days
[43] = No feces, sugar 100 mmol/L + phenylboronic acid 15 mmol/L, 14 days
[44] = No feces, sugar 100 mmol/L + phenylboronic acid 15 mmol/L, 21 days
[45] = No feces, sugar 100 mmol/L, no phenylboronic acid, 0 days
[46] = No feces, sugar 100 mmol/L, no phenylboronic acid, 7 days
[47] = No feces, sugar 100 mmol/L, no phenylboronic acid, 14 days
[48] = No feces, sugar 100 mmol/L, no phenylboronic acid, 21 days

OC[C@H]1O[C@H](O[C@H]2O[C@H](CO)[C@@H](O)[C@H](O)[C@H]2O)[C@H](O)[C@@H](O)[C@@H]1O [Trehalose, trehalose]
Hb concentration [1]: 299 µg/L | Recovery ratio with respect to Hb concentration after 0 days [1]: 100% | Hb concentration [2]: 261 µg/L | Recovery ratio with respect to Hb concentration after 0 days [2]: 87% | Hb concentration [3]: 247 µg/L | Recovery ratio with respect to Hb concentration after 0 days [3]: 83% | Hb concentration [4]: 241 µg/L | Recovery ratio with respect to Hb concentration after 0 days [4]: 81% | Hb concentration [5]: 291 µg/L | Recovery ratio with respect to Hb concentration after 0 days [5]: 100% | Hb concentration [6]: 249 µg/L | Recovery ratio with respect to Hb concentration after 0 days [6]: 86% | Hb concentration [7]: 238 µg/L | Recovery ratio with respect to Hb concentration after 0 days [7]: 82% | Hb concentration [8]: 230 µg/L | Recovery ratio with respect to Hb concentration after 0 days [8]: 79% | Hb concentration [9]: 266 µg/L | Recovery ratio with respect to Hb concentration after 0 days [9]: 100% | Hb concentration [10]: 121 µg/L | Recovery ratio with respect to Hb concentration after 0 days [10]: 45% | Hb concentration [11]: 80 µg/L | Recovery ratio with respect to Hb concentration after 0 days [11]: 30% | Hb concentration [12]: 44 µg/L | Recovery ratio with respect to Hb concentration after 0 days [12]: 17% | Hb concentration [13]: 284 µg/L | Recovery ratio with respect to Hb concentration after 0 days [13]: 100% | Hb concentration [14]: 257 µg/L | Recovery ratio with respect to Hb concentration after 0 days [14]: 90% | Hb concentration [15]: 223 µg/L | Recovery ratio with respect to Hb concentration after 0 days [15]: 79% | Hb concentration [16]: 201 µg/L | Recovery ratio with respect to Hb concentration after 0 days [16]: 71% | Hb concentration [17]: 269 µg/L | Recovery ratio with respect to Hb concentration after 0 days [17]: 100% | Hb concentration [18]: 251 µg/L | Recovery ratio with respect to Hb concentration after 0 days [18]: 93% | Hb concentration [19]: 227 µg/L | Recovery ratio with respect to Hb concentration after 0 days [19]: 84% | Hb concentration [20]: 206 µg/L | Recovery ratio with respect to Hb concentration after 0 days [20]: 77% | Hb concentration [21]: 264 µg/L | Recovery ratio with respect to Hb concentration after 0 days [21]: 100% | Hb concentration [22]: 106 µg/L | Recovery ratio with respect to Hb concentration after 0 days [22]: 40% | Hb concentration [23]: 61 µg/L | Recovery ratio with respect to Hb concentration after 0 days [23]: 23% | Hb concentration [24]: 41 µg/L | Recovery ratio with respect to Hb concentration after 0 days [24]: 16% | Hb concentration [25]: 282 µg/L | Recovery ratio with respect to Hb concentration after 0 days [25]: 100% | Hb concentration [26]: 221 µg/L | Recovery ratio with respect to Hb concentration after 0 days [26]: 78% | Hb concentration [27]: 197 µg/L | Recovery ratio with respect to Hb concentration after 0 days [27]: 70% | Hb concentration [28]: 178 µg/L | Recovery ratio with respect to Hb concentration after 0 days [28]: 63% | Hb concentration [29]: 281 µg/L | Recovery ratio with respect to Hb concentration after 0 days [29]: 100% | Hb concentration [30]: 213 µg/L | Recovery ratio with respect to Hb concentration after 0 days [30]: 76% | Hb concentration [31]: 192 µg/L | Recovery ratio with respect to Hb concentration after 0 days [31]: 68% | Hb concentration [32]: 179 µg/L | Recovery ratio with respect to Hb concentration after 0 days [32]: 64% | Hb concentration [33]: 267 µg/L | Recovery ratio with respect to Hb concentration after 0 days [33]: 100% | Hb concentration [34]: 91 µg/L | Recovery ratio with respect to Hb concentration after 0 days [34]: 34% | Hb concentration [35]: 56 µg/L | Recovery ratio with respect to Hb concentration after 0 days [35]: 21% | Hb concentration [36]: 47 µg/L | Recovery ratio with respect to Hb concentration after 0 days [36]: 18% | Hb concentration [37]: 268 µg/L | Recovery ratio with respect to Hb concentration after 0 days [37]: 100% | Hb concentration [38]: 253 µg/L | Recovery ratio with respect to Hb concentration after 0 days [38]: 94% | Hb concentration [39]: 255 µg/L | Recovery ratio with respect to Hb concentration after 0 days [39]: 95% | Hb concentration [40]: 257 µg/L | Recovery ratio with respect to Hb concentration after 0 days [40]: 96% | Hb concentration [41]: 269 µg/L | Recovery ratio with respect to Hb concentration after 0 days [41]: 100% | Hb concentration [42]: 248 µg/L | Recovery ratio with respect to Hb concentration after 0 days [42]: 92% | Hb concentration [43]: 251 µg/L | Recovery ratio with respect to Hb concentration after 0 days [43]: 93% | Hb concentration [44]: 251 µg/L | Recovery ratio with respect to Hb concentration after 0 days [44]: 93% | Hb concentration [45]: 243 µg/L | Recovery ratio with respect to Hb concentration after 0 days [45]: 100% | Hb concentration [46]: 229 µg/L | Recovery ratio with respect to Hb concentration after 0 days [46]: 94% | Hb concentration [47]: 225 µg/L | Recovery ratio with respect to Hb concentration after 0 days [47]: 93% | Hb concentration [48]: 222 µg/L | Recovery ratio with respect to Hb concentration after 0 days [48]: 91% | recovery ratio of hemoglobin in the samples containing fecal specimens (sugar 100 mmol/L, preservation solutions containing no phenylboronic acid): does not improve | recovery ratios (sugar further added to phenylboronic acid 15 mmol/L, Feces 3): not improved
